Read-outs that look alike come from different tables or passages of the source. *1 amine or outer side, *2 acyl side, *3 side chain or, on linkers, in order; H or OH if unused. Where a SMILES comes first, the peptide text is derived from it. Bridges are numbered along the chain shown (N, C = ends). [ ]: non-standard residue; d: D form. The star is where a group is joined. hPhe(3-Cl-4-CF3) = N[C@@H](CCc1ccc(C(F)(F)F)c(Cl)c1)C(=O)O; NPrPhe(4-CF3) = CCCN[C@@H](Cc1ccc(C(F)(F)F)cc1)C(=O)O; X19 = CCCN([C@@H](CC1CCC(F)(F)CC1)C(=O)[*:2])[*:1]; X43 = CCCN([C@@H](Cc1ccccc1)C(=O)[*:2])[*:1]; Morpholine(3S-CO) = O=C(O)[C@@H]1COCCN1; NMeGly(cPent) = CN[C@H](C(=O)O)C1CCCC1; NMeD = CN[C@@H](CC(=O)O)C(=O)O; NMeL = CN[C@@H](CC(C)C)C(=O)O; Morpholide = C1CN(*)CCO1; NMeA = CN[C@@H](C)C(=O)O; Ac5c = NC1(C(=O)O)CCCC1; Aze = O=C(O)[C@@H]1CCN1; Sar = CNCC(=O)O
Tests used:
[1] = biological target: GDP-bound KRAS wild-type protein (Homo sapiens, UniProt P01116); test: Binding to KRAS by surface plasmon resonance (SPR), Single Cycle Kinetics; conditions: GDP-bound KRAS wild-type protein, read-out: KRAS KD
Chain of GDP-bound KRAS wild-type protein (P01116 whole entry): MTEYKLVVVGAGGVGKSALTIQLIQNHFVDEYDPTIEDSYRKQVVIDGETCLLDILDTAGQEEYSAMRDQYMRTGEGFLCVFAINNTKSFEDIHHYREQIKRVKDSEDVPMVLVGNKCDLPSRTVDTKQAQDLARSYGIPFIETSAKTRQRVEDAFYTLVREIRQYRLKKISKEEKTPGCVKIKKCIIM

[2] = biological target: GDP-bound HRAS wild-type protein (Homo sapiens, UniProt P01112); test: Binding to HRAS by surface plasmon resonance (SPR), Single Cycle Kinetics; conditions: for HRAS/KRAS (ratio of KD value with respect to GDP-bound HRAS wild-type protein to KD value with respect to KRAS): SPR KD ratio HRAS/KRAS, class symbols; for HRAS/KRAS (ratio of KD value for HRAS to KD value for KRAS) / HRAS/KRAS (ratio of KD value with respect to HRAS to KD value with respect to KRAS): SPR, GDP-bound HRAS wild-type protein vs GDP-bound KRAS wild-type protein
Chain of GDP-bound HRAS wild-type protein (P01112 whole entry): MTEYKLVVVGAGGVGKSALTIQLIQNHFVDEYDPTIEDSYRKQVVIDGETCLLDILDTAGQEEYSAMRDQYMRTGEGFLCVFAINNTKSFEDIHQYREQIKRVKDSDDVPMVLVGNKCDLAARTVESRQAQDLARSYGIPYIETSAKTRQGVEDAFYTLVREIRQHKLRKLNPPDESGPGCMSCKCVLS

[3] = biological target: GDP-bound NRAS wild-type protein (Homo sapiens, UniProt P01111); test: Binding to NRAS by surface plasmon resonance (SPR), Single Cycle Kinetics; conditions: for NRAS/KRAS (ratio of KD value with respect to GDP-bound NRAS wild-type protein to KD value with respect to KRAS): SPR KD ratio NRAS/KRAS, class symbols; for NRAS/KRAS (ratio of KD value for NRAS to KD value for KRAS) / NRAS/KRAS (ratio of KD value with respect to NRAS to KD value with respect to KRAS): SPR, GDP-bound NRAS wild-type protein vs GDP-bound KRAS wild-type protein
Chain of GDP-bound NRAS wild-type protein (P01111 whole entry): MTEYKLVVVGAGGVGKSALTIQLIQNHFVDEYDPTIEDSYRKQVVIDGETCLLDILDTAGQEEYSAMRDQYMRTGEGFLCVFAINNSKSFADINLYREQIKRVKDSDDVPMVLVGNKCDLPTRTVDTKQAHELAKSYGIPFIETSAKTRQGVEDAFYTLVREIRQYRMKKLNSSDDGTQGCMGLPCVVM

[4] = SPR Single Cycle Kinetics, 1:1 binding model

Structure (SMILES) | Kd [1, 4] | HRAS/KRAS (ratio of KD value with respect to GDP-bound HRAS wild-type protein to KD value with respect to KRAS) [2] | NRAS/KRAS (ratio of KD value with respect to GDP-bound NRAS wild-type protein to KD value with respect to KRAS) [3] | Kd ([1]; SPR, Single Cycle Kinetics) | HRAS/KRAS (ratio of KD value for HRAS to KD value for KRAS) [2] | NRAS/KRAS (ratio of KD value for NRAS to KD value for KRAS) [3] | HRAS/KRAS (ratio of KD value with respect to HRAS to KD value with respect to KRAS) [2] | NRAS/KRAS (ratio of KD value with respect to NRAS to KD value with respect to KRAS) [3]
CCO[C@@H]1C[C@H]2C(=O)NC3(CCC3)C(=O)N(C)[C@@H](C3CCCC3)C(=O)N(C)[C@H](C(=O)N(C)C)CC(=O)N(C)[C@@H](CC3CCCC3)C(=O)N[C@@H]([C@@H](C)CC)C(=O)N(C)CC(=O)N(C)[C@H]3C/C=C\CCN(C3=O)[C@@H](Cc3ccc(C)cc3)C(=O)N(C)CC(=O)N[C@@H](CCc3cc(C)c(C(F)F)c(F)c3)C(=O)N2C1 [PP2676] | 0.87 nM | A (a compound having 10 or more and less than 20 is denoted as A) | A (a compound having 10 or more and less than 20 is denoted as A) | – | – | – | – | –
CC[C@H](C)[C@@H]1NC(=O)[C@H](COC)N(C)C(=O)C[C@@H](C(=O)N(C)C)N(C)C(=O)[C@H](C2CCCC2)N(C)C(=O)C2(CC(C)(C)C2)NC(=O)[C@@H]2CCCCN2C(=O)[C@H](CCc2cc(F)c(C(F)(F)F)c(F)c2)NC(=O)CN(C)C(=O)[C@H](Cc2ccc(C(F)(F)F)cc2)N2CC/C=C\C[C@@H](C2=O)N(C)C(=O)CN(C)C1=O [PP2907] | 0.23 nM | A (a compound having 10 or more and less than 20 is denoted as A) | AA (a compound having 20 or more is denoted as AA) | – | – | – | – | –
CCO[C@@H]1C[C@H]2C(=O)NC3(CCC3)C(=O)N(C)[C@@H](C3CCCC3)C(=O)N(C)[C@H](C(=O)N3CCOCC3)CC(=O)N(C)[C@@H](CC(C)C)C(=O)N[C@@H]([C@@H](C)CC)C(=O)N(C)CC(=O)N(C)[C@H]3CCCCCN(C3=O)[C@@H](Cc3ccc(F)cc3OC)C(=O)N(C)CC(=O)N[C@@H](CCc3cc(F)c(C(F)(F)F)c(F)c3)C(=O)N2C1 [PP0924] | – | – | – | 0.82 nM | B (a compound having 3 or more and less than 10 is denoted as B) | B (a compound having 3 or more and less than 10 is denoted as B) | – | –
CCC[C@H]1C(=O)N[C@@H]([C@@H](C)CC)C(=O)N(C)CC(=O)N(C)[C@H]2C/C=C\CCN(C2=O)[C@@H](Cc2ccc(C(F)(F)F)cc2)C(=O)N(C)CC(=O)N[C@@H](CCc2ccc(C(F)(F)F)c(OC)c2)C(=O)N2C[C@H](OCC)C[C@H]2C(=O)NC2(CC(C)(C)C2)C(=O)N(C)[C@@H](CC2CC2)C(=O)N(C)[C@H](C(=O)N(C)C)CC(=O)N1C [PP2809] | 0.9 nM | A (a compound having 10 or more and less than 20 is denoted as A) | A (a compound having 10 or more and less than 20 is denoted as A) | – | – | – | – | –
CCCN1C(=O)CN(C)C(=O)CN(C)C(=O)[C@H]([C@@H](C)CC)NC(=O)[C@H](CC(C)C)N(C)C(=O)C[C@@H](C(=O)N2CCOCC2)N(C)C(=O)[C@H](C2CCCC2)N(C)C(=O)C2(CCCC2)NC(=O)[C@@H]2CCCN2C(=O)[C@H](CCc2ccc(C(F)(F)F)c(Cl)c2)NC(=O)CN(C)C(=O)[C@@H]1CC1CCC(F)(F)CC1 [PP0526] ([NMeL]I[Sar][Sar][X19][Sar][hPhe(3-Cl-4-CF3)]P[Ac5c][NMeGly(cPent)][NMeD]-Morpholide; lactam N-11) | 0.074 nM | – | – | – | – | – | C (A compound having a KD ratio of 0.1 or more and less than 3 is denoted as C) | B (a compound having 3 or more and less than 10 is denoted as B)
CCCN1C(=O)CN(C)C(=O)CN(C)C(=O)[C@H]([C@@H](C)CC)NC(=O)[C@H](CC(C)C)N(C)C(=O)C[C@@H](C(=O)N2CCOCC2)N(C)C(=O)[C@H](C2CCCC2)N(C)C(=O)C2(CCCC2)NC(=O)[C@@H]2COCCN2C(=O)[C@H](CCc2ccc(C(F)(F)F)c(Cl)c2)NC(=O)CN(C)C(=O)[C@@H]1Cc1ccc(C(F)(F)F)cc1 [PP0265] ([NMeL]I[Sar][Sar][NPrPhe(4-CF3)][Sar][hPhe(3-Cl-4-CF3)][Morpholine(3S-CO)][Ac5c][NMeGly(cPent)][NMeD]-Morpholide; lactam N-11) | 0.28 nM | – | – | – | C (A compound having a KD ratio of 0.1 or more and less than 3 is denoted as C) | B (a compound having 3 or more and less than 10 is denoted as B) | – | –
CCO[C@@H]1C[C@H]2C(=O)NC3(CC(C)(C)C3)C(=O)N(C)[C@@H](C(CC)CC)C(=O)N(C)[C@H](C(=O)N(C)C)CC(=O)N(C)[C@@H](CC3CC3)C(=O)N[C@@H]([C@@H](C)CC)C(=O)N(C)CC(=O)N(C)[C@H]3C/C=C\CCN(C3=O)[C@@H](Cc3ccc(C(F)(F)F)cc3)C(=O)N(C)CC(=O)N[C@@H](CCc3cc(F)c(C(F)(F)F)c(F)c3)C(=O)N2C1 [PP2119] | – | – | – | 5 nM | B (a compound having 3 or more and less than 10 is denoted as B) | A (a compound having 10 or more and less than 20 is denoted as A) | – | –
CC[C@H](C)[C@@H]1NC(=O)[C@H](CC(C)C)N(C)C(=O)C[C@@H](C(=O)N2CCOCC2)N(C)C(=O)[C@H](C2CCCC2)N(C)C(=O)C2(CCCC2)NC(=O)[C@@H]2CC(=O)CN2C(=O)[C@H](CCc2cc(F)c(C(F)(F)F)c(F)c2)NC(=O)CN(C)C(=O)[C@H](Cc2ccc(C(F)(F)F)cc2)N2CCCC[C@@H](C2=O)N(C)C(=O)CN(C)C1=O [PP0555] | 0.066 nM | – | – | – | – | – | B (a compound having 3 or more and less than 10 is denoted as B) | B (a compound having 3 or more and less than 10 is denoted as B)
CCCN1C(=O)[C@@H]2CCN2C(=O)[C@H](C)N(C)C(=O)[C@H]([C@@H](C)CC)NC(=O)[C@H](CC(C)C)N(C)C(=O)C[C@@H](C(=O)N2CCOCC2)N(C)C(=O)[C@H](C2CCCC2)N(C)C(=O)C2(CCCC2)NC(=O)[C@@H]2CCCN2C(=O)[C@H](CCc2ccc(C(F)(F)F)c(Cl)c2)NC(=O)CN(C)C(=O)[C@@H]1Cc1ccccc1 [PP0216] ([NMeL]I[NMeA][Aze][X43][Sar][hPhe(3-Cl-4-CF3)]P[Ac5c][NMeGly(cPent)][NMeD]-Morpholide; lactam N-11) | 0.28 nM | – | – | – | B (a compound having 3 or more and less than 10 is denoted as B) | C (A compound having a KD ratio of 0.1 or more and less than 3 is denoted as C) | – | –
CCO[C@@H]1C[C@H]2C(=O)NC3(CCCC3)C(=O)N(C)[C@@H](C3CCCC3)C(=O)N(C)[C@H](C(=O)N3CCOCC3)CC(=O)N(C)[C@@H](CC)C(=O)N[C@@H]([C@@H](C)CC)C(=O)N(C)CC(=O)N(C)[C@H]3CC(C)=CCN(C3=O)[C@@H](Cc3ccc(C(F)(F)F)cc3)C(=O)N(C)CC(=O)N[C@@H](CCc3cc(F)c(C(F)(F)F)c(F)c3)C(=O)N2C1 [PP1043] | – | – | – | 2.4 nM | C (A compound having a KD ratio of 0.1 or more and less than 3 is denoted as C) | C (A compound having a KD ratio of 0.1 or more and less than 3 is denoted as C) | – | –
CCO[C@@H]1C[C@H]2C(=O)NC3(CCC3)C(=O)N(C)[C@@H](C(C)C)C(=O)N(C)[C@H](C(=O)N(C)C)CC(=O)N(C)[C@@H](CC)C(=O)N[C@@H]([C@@H](C)CC)C(=O)N(C)CC(=O)N(C)[C@H]3C/C=C\CCN(C3=O)[C@@H](Cc3ccc(C(F)(F)F)cc3)C(=O)N(C)CC(=O)N[C@@H](CCc3cc(F)c(C(F)(F)F)c(F)c3)C(=O)N2C1 [PP1088] | – | – | – | 0.55 nM | A (a compound having 10 or more and less than 20 is denoted as A) | A (a compound having 10 or more and less than 20 is denoted as A) | – | –
CCO[C@@H]1C[C@H]2C(=O)NC3(CCC3)C(=O)N(C)[C@@H](C3CCCC3)C(=O)N(C)[C@H](C(=O)N(C)C)CC(=O)N(C)[C@@H](CC)C(=O)N[C@@H]([C@@H](C)CC)C(=O)N3CC[C@H]3C(=O)N(C)[C@H]3C[C@@H](C)CCN(C3=O)[C@@H](Cc3ccc(C(F)(F)F)cc3)C(=O)N(C)CC(=O)N[C@@H](CCc3cc(F)c(C(F)(F)F)c(F)c3)C(=O)N2C1 [PP1021] | – | – | – | 0.057 nM | B (a compound having 3 or more and less than 10 is denoted as B) | C (A compound having a KD ratio of 0.1 or more and less than 3 is denoted as C) | – | –
CCO[C@@H]1C[C@H]2C(=O)NC3(CCC3)C(=O)N(C)[C@@H](C3CCCC3)C(=O)N(C)[C@H](C(=O)N3CCOCC3)CC(=O)N(C)[C@@H](CC3CCCC3)C(=O)N[C@@H]([C@@H](C)CC)C(=O)N(C)CC(=O)N(C)[C@H]3CCCCN(C3=O)[C@@H](Cc3ccc(C(F)(F)F)cc3)C(=O)N(C)CC(=O)N[C@@H](CCc3cc(F)c(C(F)(F)F)c(F)c3)C(=O)N2C1 [PP0715] | 0.035 nM | – | – | – | – | – | B (a compound having 3 or more and less than 10 is denoted as B) | C (A compound having a KD ratio of 0.1 or more and less than 3 is denoted as C)
CCO[C@@H]1C[C@H]2C(=O)NC3(CCC3)C(=O)N(C)[C@@H](CC(F)F)C(=O)N(C)[C@H](C(=O)N3CCOCC3)CC(=O)N(C)[C@@H](CC(C)C)C(=O)N[C@@H]([C@@H](C)CC)C(=O)N(C)CC(=O)N(C)[C@H]3CCCCCN(C3=O)[C@@H](Cc3ccc(C(F)(F)F)cc3)C(=O)N(C)CC(=O)N[C@@H](CCc3cc(F)c(C(F)(F)F)c(F)c3)C(=O)N2C1 [PP0822] | – | – | – | 5.7 nM | B (a compound having 3 or more and less than 10 is denoted as B) | B (a compound having 3 or more and less than 10 is denoted as B) | – | –

From patent publication US20240158446A1, “CYCLIC COMPOUND HAVING SELECTIVE INHIBITORY ACTION ON KRAS OVER HRAS AND NRAS” (CHUGAI SEIYAKU KABUSHIKI KAISHA, priority 2021, published 2024)
